In patent US6479456B1, “Antimicrobial perfume compositions” (Firmenich SA, priority 2000, dated 2002):

Tested on: Pityrosporum ovale
Assay: agar surface coating test (ASCT) against Pityrosporum ovale, in shampoo
Type: cell-based
Conditions: shampoo containing Octopirox compared with a shampoo without Octopirox
Experimental: Whatever the chosen test according to the invention, a culture of the selected germ was set up on Petri dishes under the same test conditions in parallel with a control solution composed in general of sterilised water or of a saline solution. After the period(s) of incubation considered according to the selected test, the surface area of the dish which was free of bacteria and/or fungi was measured for both the tested compound and the control solution. By calculating a surface ratio, a relative surface value, enabling the selection of the compounds with an antimicrobial activity of at least 80% in one of these tests of effectiveness, was defined. The following germs were used in these methods: Pityrosporum ovale, Staphylococcus aureus, Staphylococcus epidermidis, Escherichia coli, Pseudomonas aeruginosa, Candida albicans, Trichophyton mentagrophytes. […]
The tested product and the agar surface are again left in contact for 30 s under the same conditions as above, followed by the stage of rinsing and of 24-h incubation at ambient temperature, and the antimicrobial evolution is observed again after this second phase of the test. […] The microbicidal or microbiostatic action can be established after each phase of the test, and recorded. […]

Cc1cc(CC(C)CC(C)(C)C)n(O)c(=O)c1.NCCO (stereo not shown) [Octopirox®, Piroctone olamine]
reduction of growth of P. ovale: 60%
